The text below walks through data of US9636336B2, “Aminoester derivatives” (CHIESI FARMACEUTICI S.p.A., priority 2015, dated 2017).

The target in assay [1] is Human M3 receptor membranes (Homo sapiens (Human), UniProt P20309). Nature of the assay: M3 Receptor radioligand binding assay. Here is the method:
M3 Receptor Radioligand Binding Assay:
The assay is carried out in 96-well polypropylene plates in a volume of 250 μl. […] The final assay concentration of DMSO is 0.5% (v/v). The plates are sealed and incubated for 2 h at room temperature on an orbital shaker (slow speed). Membranes are harvested onto 96-well unifilter GF/C filter plates pre-treated with 0.5% polyethyleneimine (v/v), using a filter manifold, washed four times with 200 μl of assay buffer. The plates are dried before addition of 50 μl of microscint-0, sealed then read in a Trilux Microbeta scintillation counter. IC50 values are determined from competition curves using a non-linear curve fitting program. Ki values are calculated from IC50 values by the Cheng and Prusoff equation.

In another assay the target is Human recombinant PDE4B2 (Homo sapiens (Human), UniProt Q07343). Nature of the assay: PDE4B2 HTRF assay. The format is biochemical. Here is the method: PDE4B2 activity is detected using the LANCE Ultra cAMP homogeneous time resolved fluorescence resonance energy transfer (TR-FRET) assay from Perkin Elmer. The assay is based on the competition between the europium (Eu) chelate-labeled cAMP tracer and sample cAMP for binding sites on cAMP-specific monoclonal antibodies (mAb) labelled with the ULight™ dye. The assay is carried out in 384-well low volume plates in a volume of 10 μl. Human recombinant PDE4B2 (80 pM) is incubated for 2 h with 3 nM cAMP in buffer containing 1×HBSS, 5 mM HEPES, 3 mM MgCl2, 0.1% BSA, pH 7.4 with or without test compounds. The enzymatic reactions are efficiently stopped by the addition of 500 μM IBMX present in the combined Stop/Detection buffer containing europium (Eu) chelate-labeled cAMP tracer and cAMP-specific monoclonal antibodies (mAb) labelled with the ULight™ dye. […] IC50 values are determined from competition curves using a non-linear curve fitting program.
Chain of Human recombinant PDE4B2 (Q07343 other isoform, or with tags, fused parts or gaps): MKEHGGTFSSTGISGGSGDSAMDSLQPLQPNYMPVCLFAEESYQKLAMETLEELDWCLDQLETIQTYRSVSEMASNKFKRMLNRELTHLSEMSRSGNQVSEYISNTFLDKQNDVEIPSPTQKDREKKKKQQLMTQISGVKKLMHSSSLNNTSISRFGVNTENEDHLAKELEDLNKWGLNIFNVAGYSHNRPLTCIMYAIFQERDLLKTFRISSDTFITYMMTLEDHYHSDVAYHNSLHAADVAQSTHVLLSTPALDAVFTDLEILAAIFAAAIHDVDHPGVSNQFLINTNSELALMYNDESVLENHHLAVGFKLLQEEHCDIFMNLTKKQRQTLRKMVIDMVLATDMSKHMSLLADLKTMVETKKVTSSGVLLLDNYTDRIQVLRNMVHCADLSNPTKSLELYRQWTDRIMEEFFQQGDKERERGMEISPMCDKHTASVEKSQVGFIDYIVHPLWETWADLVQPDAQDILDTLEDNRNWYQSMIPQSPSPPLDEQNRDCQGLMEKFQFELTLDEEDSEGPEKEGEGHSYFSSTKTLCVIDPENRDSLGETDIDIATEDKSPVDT

Where [2] appears, read: M3 Receptor radioligand binding assay, read-out: M3 IC50 activity.
Where [3] appears, read: PDE4B2 HTRF assay, read-out: PDE4B2 IC50 activity.

Where two headings read alike, the source gives them in different places. Where only a bound is given, the exact number is not on record here.

A word on the IC50: it is the concentration that inhibits the measured activity by half.

Chain of Human M3 receptor membranes (P20309 whole entry): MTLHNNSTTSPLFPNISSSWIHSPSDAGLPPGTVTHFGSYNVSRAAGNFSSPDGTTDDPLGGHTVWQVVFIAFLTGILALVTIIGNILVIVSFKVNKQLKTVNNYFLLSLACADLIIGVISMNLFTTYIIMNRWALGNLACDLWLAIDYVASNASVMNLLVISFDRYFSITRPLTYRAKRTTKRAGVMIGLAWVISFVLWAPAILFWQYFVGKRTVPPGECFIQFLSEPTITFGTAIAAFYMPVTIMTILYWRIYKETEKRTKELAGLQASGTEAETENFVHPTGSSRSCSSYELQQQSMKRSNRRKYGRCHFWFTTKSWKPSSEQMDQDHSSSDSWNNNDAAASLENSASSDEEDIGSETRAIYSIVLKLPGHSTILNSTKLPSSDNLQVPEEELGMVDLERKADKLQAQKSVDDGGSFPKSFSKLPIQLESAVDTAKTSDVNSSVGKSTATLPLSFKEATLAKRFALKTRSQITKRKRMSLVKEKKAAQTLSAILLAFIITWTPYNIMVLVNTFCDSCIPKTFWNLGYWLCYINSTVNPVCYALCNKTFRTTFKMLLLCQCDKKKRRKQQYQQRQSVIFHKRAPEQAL

With `COc1ccc([C@H](Cc2c(Cl)c[n+]([O-])cc2Cl)OC(=O)c2ccc(CNC(C(=O)OCC3(C)CCN(C)CC3)c3ccccc3)s2)cc1OC` (mixture of isomers) [Example 2, [(1S)-2-(3,5-dichloro-1-oxido-pyridin-1-ium-4-yl)-1-(3,4-dimethoxyphenyl)ethyl]5-[[[2-[(1,4-dimethyl-4-piperidyl)methoxy]-2-oxo-1-phenyl-ethyl]amino]methyl]thiophene-2-carboxylate], the figures for the half-maximal inhibitory concentration (IC50) (in assay [1] (setting [2]); on Human recombinant PDE4B2 (setting [3])) were 0.01 to 0.1 µM and 0.001 to 0.01 µM, respectively.

`COc1ccc([C@H](Cc2c(Cl)c[n+]([O-])cc2Cl)OC(=O)c2ccc(CNC(CO)(C(=O)OCC3CCN(C)CC3)c3cccs3)s2)cc1OC` (mixture of isomers) [Example 37, [(1S)-2-(3,5-dichloro-1-oxido-pyridin-1-ium-4-yl)-1-(3,4-dimethoxyphenyl)ethyl]5-[[[1-(hydroxymethyl)-2-[(1-methyl-4-piperidyl)methoxy]-2-oxo-1-(2-thienyl)ethyl]amino]methyl]thiophene-2-carboxylate]: the IC50 in assay [1] (setting [2]) was 0.001 to 0.01 µM; at Human recombinant PDE4B2 (setting [3]), less than 0.001 µM.

As to `CN1CCC(COC(=O)C(NCc2ccc(C(=O)O[C@@H](Cc3c(Cl)c[n+]([O-])cc3Cl)c3ccc(OC(F)F)c(OCC4CC4)c3)s2)c2cccc(O)c2)CC1` (mixture of isomers) [Example 46, [(1S)-1-[3-(cyclopropylmethoxy)-4-(difluoromethoxy)phenyl]-2-(3,5-dichloro-1-oxido-pyridin-1-ium-4-yl)ethyl]5-[[[1-(3-hydroxyphenyl)-2-[(1-methyl-4-piperidyl)methoxy]-2-oxo-ethyl]amino]methyl]thiophene-2-carboxylate], the IC50 (in assay [1] (setting [2]); on Human recombinant PDE4B2 (setting [3])) was 0.001 to 0.01 µM each time.

Turning to `COc1ccc([C@H](Cc2c(Cl)c[n+]([O-])cc2Cl)OC(=O)c2ccc(CNC(C(=O)OCC3CCN(C(C)C)CC3)c3ccccc3)s2)cc1OC` (single isomer, unassigned) [Example 42], the results for the IC50 (in assay [1] (setting [2]); at Human recombinant PDE4B2 (setting [3])) were 0.01 to 0.1 µM and 0.001 to 0.01 µM, respectively.

`COc1ccc([C@H](Cc2c(Cl)c[n+]([O-])cc2Cl)OC(=O)c2ccc(CNCC(O)(C(=O)OCC3CCN(C)CC3)c3cccs3)s2)cc1OC` (stereo partly drawn) [Example 1, [(1S)-2-(3,5-dichloro-1-oxido-pyridin-1-ium-4-yl)-1-(3,4-dimethoxyphenyl)ethyl]5-[[[2-hydroxy-3-[(1-methyl-4-piperidyl)methoxy]-3-oxo-2-(2-thienyl)propyl]amino]methyl]-thiophene-2-carboxylate]: the IC50 is 0.01 to 0.1 µM in assay [1] and 0.001 to 0.01 µM at Human recombinant PDE4B2.

With `COc1ccc([C@H](Cc2c(Cl)c[n+]([O-])cc2Cl)OC(=O)c2ccc(CNC(C(=O)OCC3(F)CCN(C)CC3)c3ccccc3)s2)cc1OC` (stereo partly drawn) [Example 3, [(1S)-2-(3,5-dichloro-1-oxido-pyridin-1-ium-4-yl)-1-(3,4-dimethoxyphenyl)ethyl] 5-[[[2-[(4-fluoro-1-methyl-4-piperidyl)methoxy]-2-oxo-1-phenyl-ethyl]amino]methyl]thiophene-2-carboxylate], the concentration for half-maximal inhibition (IC50) on Human recombinant PDE4B2 (setting [3]) lay in the range of 0.001 to 0.01 µM.

For the compound `COc1ccc(C(Cc2c(Cl)c[n+]([O-])cc2Cl)OC(=O)c2ccc(CNC(C(=O)OCC3CCN(C)CC3)c3ccccc3)s2)cc1OC1CCCC1` (stereo not drawn) [Example 5, [1-[3-(cyclopentoxy)-4-methoxy-phenyl]-2-(3,5-dichloro-1-oxido-pyridin-1-ium-4-yl)ethyl] 5-[[[2-[(1-methyl-4-piperidyl)methoxy]-2-oxo-1-phenyl-ethyl]amino]methyl]thiophene-2-carboxylate], the IC50 (in assay [1] (setting [2]); at Human recombinant PDE4B2 (setting [3])) was 0.001 to 0.01 µM in each case.

Consider `COc1ccc(C(Cc2c(Cl)c[n+]([O-])cc2Cl)OC(=O)c2ccc(CNC(C(=O)OCC3CCN(C)CC3)c3ccccc3)s2)cc1OC1CCCC1` (stereo not drawn) [Example 6, [1-[3-(cyclopentoxy)-4-methoxy-phenyl]-2-(3,5-dichloro-1-oxido-pyridin-1-ium-4-yl)ethyl] 5-[[[2-[(1-methyl-4-piperidyl)methoxy]-2-oxo-1-phenyl-ethyl]amino]methyl]thiophene-2-carboxylate], for which, in assay [1] (setting [2]), the IC50 fell in the range of 0.001 to 0.01 µM.

`COc1ccc([C@H](Cc2c(Cl)c[n+]([O-])cc2Cl)OC(=O)c2ccc(CNCC(C(=O)OCC3CCN(C)CC3)c3ccccc3)s2)cc1OC` (stereo partly drawn) [Example 7, [(1S)-2-(3,5-dichloro-1-oxido-pyridin-1-ium-4-yl)-1-(3,4-dimethoxyphenyl)ethyl]5-[[[3-[(1-methyl-4-piperidyl)methoxy]-3-oxo-2-phenyl-propyl]amino]methyl]thiophene-2-carboxylate]: the 50% inhibitory concentration (IC50) in assay [1] (setting [2]) is 0.01 to 0.1 µM; at Human recombinant PDE4B2 (setting [3]) it was 0.001 to 0.01 µM.

`CCN1CCC(COC(=O)C(NCc2ccc(C(=O)O[C@@H](Cc3c(Cl)c[n+]([O-])cc3Cl)c3ccc(OC)c(OC)c3)s2)c2ccccc2)CC1` (stereo partly drawn) [Example 19]: the IC50 on Human recombinant PDE4B2 (setting [3]) is less than 0.001 µM.

On to `COc1ccc([C@H](Cc2c(Cl)c[n+]([O-])cc2Cl)OC(=O)c2ccc(CNC(C(=O)OCCN3CCCC3)c3ccccc3)s2)cc1OC` (stereo partly drawn) [Example 21, [(1S)-2-(3,5-dichloro-1-oxido-pyridin-1-ium-4-yl)-1-(3,4-dimethoxyphenyl)ethyl] 5-[[[2-oxo-1-phenyl-2-(2-pyrrolidin-1-ylethoxy)ethyl]amino]methyl]thiophene-2-carboxylate], for which, at Human recombinant PDE4B2 (setting [3]), the IC50 lay within 0.001 to 0.01 µM.

Take `COc1ccc([C@H](Cc2c(Cl)c[n+]([O-])cc2Cl)OC(=O)c2ccc(CNC(C(=O)OC[C@H]3CCCN(C)C3)c3ccccc3)s2)cc1OC` (stereo partly drawn) [Example 26, [(1S)-2-(3,5-dichloro-1-oxido-pyridin-1-ium-4-yl)-1-(3,4-dimethoxyphenyl)ethyl] 5-[[[2-[[(3S)-1-methyl-3-piperidyl]methoxy]-2-oxo-1-phenyl-ethyl]amino]methyl]thiophene-2-carboxylate]: in assay [1] (setting [2]), the IC50 lay within 0.001 to 0.01 µM.

In the case of `COc1ccc([C@H](Cc2c(Cl)c[n+]([O-])cc2Cl)OC(=O)c2ccc(CNC(C(=O)OC[C@H]3CCCCN3C)c3ccccc3)s2)cc1OC` (stereo partly drawn) [Example 30, [(1S)-2-(3,5-dichloro-1-oxido-pyridin-1-ium-4-yl)-1-(3,4-dimethoxyphenyl)ethyl] 5-[[[2-[[(2R)-1-methyl-2-piperidyl]methoxy]-2-oxo-1-phenyl-ethyl]amino]methyl]thiophene-2-carboxylate], the IC50 in assay [1] (setting [2]) is 0.01 to 0.1 µM.

Consider `COc1ccc([C@H](Cc2c(Cl)c[n+]([O-])cc2Cl)OC(=O)c2ccc(CNC(C)(C(=O)OCC3CCN(C)CC3)c3ccccc3)s2)cc1OC` (stereo partly drawn) [Example 34, [(1S)-2-(3,5-dichloro-1-oxido-pyridin-1-ium-4-yl)-1-(3,4-dimethoxyphenyl)ethyl] 5-[[[1-methyl-2-[(1-methyl-4-piperidyl)methoxy]-2-oxo-1-phenyl-ethyl]amino]methyl]thiophene-2-carboxylate], for which the IC50 in assay [1] (setting [2]) fell in the range of 0.001 to 0.01 µM.

As to `COc1ccc([C@H](Cc2c(Cl)c[n+]([O-])cc2Cl)OC(=O)c2ccc(CNC(C(=O)OCC3CCN(C)CC3)c3cccc(O)c3)s2)cc1OC` (stereo partly drawn) [Example 41, [(1S)-2-(3,5-dichloro-1-oxido-pyridin-1-ium-4-yl)-1-(3,4-dimethoxyphenyl)ethyl]5-[[[1-(3-hydroxyphenyl)-2-[(1-methyl-4-piperidyl)methoxy]-2-oxo-ethyl]amino]methyl]thiophene-2-carboxylate], the IC50 in assay [1] (setting [2]) lay within 0.001 to 0.01 µM.

As to `COc1ccc(C(Cc2c(Cl)c[n+]([O-])cc2Cl)OC(=O)c2ccc(CNC(C(=O)OCC3CCN(C)CC3)c3cccc(O)c3)s2)cc1OCC1CC1` (stereo not drawn) [Example 48, [1-[3-(cyclopropylmethoxy)-4-methoxy-phenyl]-2-(3,5-dichloro-1-oxido-pyridin-1-ium-4-yl)ethyl]5-[[[1-(3-hydroxyphenyl)-2-[(1-methyl-4-piperidyl)methoxy]-2-oxo-ethyl]amino]methyl]thiophene-2-carboxylate], the IC50 in assay [1] (setting [2]) is 0.01 to 0.1 µM.

As to `COc1ccc([C@H](Cc2c(Cl)c[n+]([O-])cc2Cl)OC(=O)c2ccc(CNC(C(=O)OC[C@@H]3CCCN(C)C3)c3ccccc3)s2)cc1OC` (stereo partly drawn) [Example 50, [(1S)-2-(3,5-dichloro-1-oxido-pyridin-1-ium-4-yl)-1-(3,4-dimethoxyphenyl)ethyl]5-[[[2-[[(3R)-1-methyl-3-piperidyl]methoxy]-2-oxo-1-phenyl-ethyl]amino]methyl]thiophene-2-carboxylate], the IC50 in assay [1] (setting [2]) lay in the range of 0.001 to 0.01 µM.

As to `COc1ccc([C@H](Cc2c(Cl)c[n+]([O-])cc2Cl)OC(=O)c2ccc(CNC(CO)(C(=O)OC[C@@H]3CCN(C)C3)c3ccccc3)s2)cc1OC` (stereo partly drawn) [Example 116, [(1S)-2-(3,5-dichloro-1-oxido-pyridin-1-ium-4-yl)-1-(3,4-dimethoxyphenyl)ethyl] 5-[[[1-(hydroxymethyl)-2-[[(3R)-1-methylpyrrolidin-3-yl]methoxy]-2-oxo-1-phenyl-ethyl]amino]methyl]thiophene-2-carboxylate], the IC50 at Human recombinant PDE4B2 (setting [3]) was in the range of 0.001 to 0.01 µM.

With `COc1ccc([C@H](Cc2c(Cl)c[n+]([O-])cc2Cl)OC(=O)c2ccc(CNC(C(=O)OCC3CCN(C)CC3)c3ccccc3OC)s2)cc1OC` (stereo partly drawn) [Example 118], on Human recombinant PDE4B2 (setting [3]), the IC50 is less than 0.001 µM.

Take `CCOc1cc(C(Cc2c(Cl)c[n+]([O-])cc2Cl)OC(=O)c2ccc(CNC(C(=O)OCC3CCN(C)CC3)c3cccc(O)c3)s2)ccc1OC` (stereo not drawn) [Example 120]: on Human recombinant PDE4B2 (setting [3]), the IC50 is less than 0.001 µM.
